Laboratory results published in US8563599B2, “Methods for synthesizing glycinols, glyceollins I and II, compositions of selected intermediates, and therapeutic uses thereof” (The United States of America, represented by the Secretary …, priority 2008, dated 2013).
Where two headings read alike, the source gives them in different places.

Key:
ABTS antioxidant assay = conditions: for Trolox Equivalents (μmol/μmol): IC50 compared to IC50 of trolox; for IC50: concentration causing 50% reduction in ABTS absorbance, 2 min, room temperature; for antioxidant activity relative to the standards daidzein and genistein: ABTS assay, summary of Table 1
Procedure: This example illustrates how the biological data pertaining to antioxidant properties of the compounds was obtained.
The antioxidant activity of each test agent was assayed by a colorimetric assay described in the literature that utilizes 2,2′-azinobis-3-ethylbenzothiazoline-6-sulfonic acid (ABTS). ABTS has an intense blue-green color in its free radical form, but is colorless without the free radical. Free radical ABTS was generated by reacting 7 mM ABTS with 2.45 mM potassium persulfate in water for 24-48 hr at room temperature in the dark. Test agents were diluted in 50/50 phosphate buffered saline (PBS)/ethanol to a series of five concentrations, then added to a 96 well half-area plate using 50 μl per well with four wells for each agent concentration. Four control wells containing 50/50 PBS/ethanol without test agents were setup for comparison for each test agent. Trolox, a water-soluble form of vitamin E commonly employed as an antioxidant standard, was also tested in each set of experiments. The free radical ABTS solution was diluted with 50/50 PBS/ethanol to give an absorbance of 1.4 absorbance units at 734 nm, and was then added 50 μl per well to two of the four wells for each condition. The other two wells for each condition received 50 μl of 50/50 PBS/ethanol without ABTS to provide background correction absorbance readings. All dilution and plate loading operations were performed on a Packard Multiprobe II HTS automated liquid handling system. […] Readings for wells with ABTS were background corrected using the corresponding wells containing matching test agent levels without ABTS. The background corrected absorbance of each test agent concentration was then compared to the control wells without agent to determine the percent decrease in color intensity, corresponding to the percent of ABTS free radical reduction. A fit of percent absorbance decrease versus test agent concentration was then used to estimate the concentration causing a 50% reduction in absorbance, called the IC50. The test agent IC50 values were then compared to the IC50 of trolox to calculate the trolox equivalents (TE, moles of trolox needed to give the same level of antioxidant activity as one mole of test agent) for each agent. Smaller IC50 values or larger TE values indicate higher levels of antioxidant activity.

MCF7 cells = assay: Growth inhibition assay (NCI method, sulforhodamine B), MCF7; assay type: cell-based, human; conditions: for GI50: read-out: GI50 (μM) MCF7
MCF12A cells = assay: Growth inhibition assay (NCI method, sulforhodamine B), MCF12A; assay type: cell-based, human; conditions: for GI50: read-out: GI50 (μM) MCF12A
NCI/ADR-RES cells = assay: Growth inhibition assay (NCI method, sulforhodamine B), NCI/ADR-RES; assay type: cell-based, human; conditions: for GI50: read-out: GI50 (μM) NCI/ADR-RES; for fall-off in activity in NCI/ADR-RES versus MCF7: multidrug resistant cell line over-expressing Pgp
[1] = tested on: estrogen receptor (ERE-luciferase) in MCF7 ER-positive cells; assay: ERE-Luciferase assay, estrogenic and antiestrogenic activity; assay type: cell-based, human; conditions: concentration not given
Procedure: Cell Culture Studies (MCF7 ER-Positive Cells)
Human cancer cell lines derived from breast (MCF7, ER-positive cells) were cultured in 75 ml culture flasks in DMEM (Invitrogen, Co.) supplemented with 10% FBS (Life Technologies, Inc., Gaithersburg, Md.), basic minimum MEM essential (50×, Invitrogen Co.) and MEM non-essential (100×, Invitrogen, Co.) amino acids, sodium pyruvate (100× Invitrogen Co.), antimicotic-antibiotic (10,000 U/mL penicillin G sodium; 10,000 μg/mL streptomycin sulphate; 25 μg/mL amphotericin B as Fungizone®), and human recombinant insulin (4 mg/mL. Invitrogen Co.). The culture flasks were maintained in a tissue culture incubator in a humidified atmosphere of 5% CO2 and 95% air at 37° C. For estrogen studies, cells were washed with PBS 3 times and grown in phenol red-free DMEM supplemented with 5% dextran-coated charcoal-treated FBS (5% CS-FBS) for 72 h before plating for each particular experiment.
Results were then assessed by using an ERE-luciferase assay. The cells were plated in 24 well plates at 5×10^5 cells/well in the same media and allowed to attach overnight. After 18 hours, cells were transfected for 5 h in serum supplemented-free DMEM with […] pGL2-ERE2X-TK-luciferase plasmid, using 6 μl of effectine (Qiagen)/μg of DNA. After 5 h the transfection medium was removed and replaced with phenol red-free DMEM supplemented with 5% CS-FBS containing vehicle, 17β-estradiol, GLY I, or 17β-estradiol plus GLY I, and incubated at 37° C. After 18 h the medium was removed, and 100 μl of lysis buffer was added per well and then incubated for 15 min at room temperature. Cell debris was pelleted by centrifugation at 15000×g for 5 min. cell extracts were normalized for protein concentration using reagent according to the protocol supplied by the manufacturer (Bio-Rad Laboratories, Inc., Hercules, Calif.). Luciferase activity for the cell extracts was determined using Luciferase substrate (Promega Corp.) in an Autoluminat Plus luminometer.

[2] = target: T1, hrER-α (alpha estrogen receptor) (Homo sapiens, UniProt P03372); assay: ER-α competition binding assay (fluorescence anisotropy, ES2 displacement); conditions: ERα/ES2 complex, 2 h room temperature, FIG. 9; read-out: IC50 for 50% inhibition of a standard's binding with the alpha estrogen receptor (ER-α)
T1 sequence (P03372 1-595): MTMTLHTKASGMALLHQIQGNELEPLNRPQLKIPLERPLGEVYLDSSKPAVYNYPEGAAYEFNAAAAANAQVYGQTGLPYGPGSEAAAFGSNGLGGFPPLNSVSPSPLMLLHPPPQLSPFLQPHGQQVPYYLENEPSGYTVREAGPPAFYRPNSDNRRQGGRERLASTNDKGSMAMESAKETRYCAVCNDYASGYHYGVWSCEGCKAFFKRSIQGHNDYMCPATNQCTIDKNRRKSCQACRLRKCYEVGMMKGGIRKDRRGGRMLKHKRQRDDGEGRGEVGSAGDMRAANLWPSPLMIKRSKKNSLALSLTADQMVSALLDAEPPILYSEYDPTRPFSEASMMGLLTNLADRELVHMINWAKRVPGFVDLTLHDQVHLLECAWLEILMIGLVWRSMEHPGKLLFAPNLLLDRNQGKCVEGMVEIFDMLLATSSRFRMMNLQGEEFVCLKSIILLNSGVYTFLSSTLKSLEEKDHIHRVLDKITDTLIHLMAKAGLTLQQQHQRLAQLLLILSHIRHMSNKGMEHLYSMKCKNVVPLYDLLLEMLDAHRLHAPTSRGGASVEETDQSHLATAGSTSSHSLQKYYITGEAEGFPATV
Procedure: This example illustrates how the biological data pertaining to interaction of the compounds with the alpha-estrogen receptors was obtained.
A 200 μM working stock solution of GLY I was prepared from an original 10 mM DMSO stock solution. The working stock solution was serially diluted in triplicate in screening buffer to the desired concentrations. hrER-α and ES2 were added to a final concentration of 2 nM and 3 nM, respectively. Negative (ER+ES2, equivalent to 0% inhibition) and positive (free ES2, equivalent to 100% inhibition) controls in the absence of competitor were measured in duplicate. After 2 h at room temperature, the anisotropy values in each tube were measured using the Beacon 2000 system CO. The anisotropy values were converted to percent inhibition using the following formula: I%=(A0−A)/(A0−A100)×100, where I% is the percent inhibition, A0 is 0% inhibition, A100 is 100% inhibition, and A represents the observed value. Polarization values were converted to percent inhibition to make the data more intuitive to the reader and to normalize the day-to-day differences in the starting 0% inhibition polarization values. The percent inhibition versus competitor concentration curves were analyzed by nonlinear least-squares curve fitting and yielded an IC50 value (the concentration of competitor needed to displace half of the bound ligand). To compare binding affinities of the test compounds to those reported in the literature, IC50 values were converted to relative binding affinities (RBA) using E2 as a standard. The E2 RBA was set equal to 100 […].

[3] = Homo sapiens, NCI/ADR-RES, 48 h
[4] = human breast cancer cells, 48 hr, 10% serum
[5] = non-cancerous 'normal' human breast epithelial cells, 48 hr
[6] = multidrug resistant cell line, 48 hr
[7] = MCF7, human breast cancer cells, 48 hr, 10% serum
[8] = MCF-12A, non-cancerous 'normal' human breast epithelial cells, 48 hr
[9] = Homo sapiens, NCI/ADR-RES, multidrug resistant cell line, 48 hr

Compound | Trolox Equivalents (μmol/μmol) (ABTS antioxidant assay) | IC50 (ABTS antioxidant assay) [µM] | GI50 (MCF7 cells; [4]) [µM] | GI50 (MCF12A cells; [5]) [µM] | GI50 (NCI/ADR-RES cells; [6]) [µM] | also measured
CC(C)(C)[Si](C)(C)Oc1ccc(C2(O)COc3cc(O)ccc3C2O)c(O)c1 (racemic) [3 (+/−), (+) 4′-(t-Butyldimethylsilyloxy)-2′,7-dihydroxy-isoflavan-3,4-diol] | 2.0 ± 0.1 | 4.6 ± 0.3 | – | – | – | GI50 (MCF7 cells; Homo sapiens, MCF7, 48 h): 31 µM; GI50 (MCF12A cells; Homo sapiens, MCF-12A, 48 h): 36 µM; GI50 (NCI/ADR-RES cells; [3]): 21 µM
CC(C)(C)[Si](C)(C)Oc1ccc2c(c1)OC1c3ccc(O)cc3OCC21O (single isomer, unassigned; (-)) [4 (−), (−) 9-(t-Butyldimethylsilyloxy)-glycinol] | 1.9 ± 0.1 | 5 ± 0.5 | 7.1 | 11 | 8.7 | –
Oc1ccc2c(c1)OC[C@@]1(O)c3ccc(O)cc3O[C@@H]21 (racemic) [Glycinol (+/−), (+) Glycinol] | 2.8 ± 0.2 | 3.5 ± 0.3 | > 1000 | > 1000 | > 1000 | antioxidant activity relative to the standards daidzein and genistein (ABTS antioxidant assay): about equiactive to the standards; estrogenic activity (ERE-Luciferase) [1]: significantly stronger estrogenic material; growth inhibitory activity (MCF7 cells; human breast cell lines, 10% serum): lack of growth inhibitory activity
CC(C)(C)[Si](C)(C)Oc1ccc2c(c1)OC1c3ccc(O)cc3OCC21O (racemic) [4 (+/−), (+) 9-(t-Butyldimethylsilyloxy)-glycinol] | 2.0 ± 0.1 | 4.6 ± 0.2 | 4.1 | 4 | 2.9 | –
CC(C)(C)[Si](C)(C)Oc1ccc(C2(O)COc3cc(OCc4ccccc4)ccc3C2O)c(OCc2ccccc2)c1 (racemic) [2 (+/−), (+) 4′-(t-Butyldimethylsilyloxy)-2′,7-dibenzyloxy-isoflavan-3,4-diol] | 0.008 ± 0.006 | > 100 | – | – | – | antioxidant activity relative to the standards daidzein and genistein (ABTS antioxidant assay): weak activity; GI50 (MCF7 cells; Homo sapiens, MCF7, 48 h): 10 µM; GI50 (MCF12A cells; Homo sapiens, MCF-12A, 48 h): 20 µM; GI50 (NCI/ADR-RES cells; [3]): 120 µM; fall-off in activity in NCI/ADR-RES versus MCF7 (NCI/ADR-RES cells): ca. 100 fold
CC1(C)C=Cc2c(ccc3c2OC[C@@]2(O)c4ccc(O)cc4O[C@@H]32)O1 [isolated GLY I, reference compound] | – | – | – | – | – | IC50 [2]: 1.1 µM
CC(=O)O[C@H]1C(=O)[C@@]2(C)[C@H]([C@H](OC(=O)c3ccccc3)[C@]3(O)C[C@H](OC(=O)[C@H](O)[C@@H](NC(=O)c4ccccc4)c4ccccc4)C(C)=C1C3(C)C)[C@]1(OC(C)=O)CO[C@@H]1C[C@@H]2O [paclitaxel, reference compound] | – | – | – | – | – | potency in MCF7 versus MCF12A (differential in activity) (MCF12A cells; cancer versus normal breast cells): nearly equivalent; fall-off in activity in NCI/ADR-RES versus MCF7 (NCI/ADR-RES cells): ~1,000 fold
O=c1c(-c2ccc(O)cc2)coc2cc(O)ccc12 [Daidzein, reference compound] | 3.0 ± 0.1 | 3.3 ± 0.2 | – | – | – | GI50 (MCF7 cells; [7]): 200 µM; GI50 (MCF12A cells; [8]): 120 µM; GI50 (NCI/ADR-RES cells; [9]): 150 µM
CC(C)(C)[Si](C)(C)Oc1ccc2c(c1)OC1c3ccc(O)cc3OCC21O (single isomer, unassigned; (+)) [4 (+), (+) 9-(t-Butyldimethylsilyloxy)-glycinol] | 1.9 ± 0.1 | 5 ± 0.4 | 14 | 15 | 13 | –
O=c1c(-c2ccc(O)cc2)coc2cc(O)cc(O)c12 [Genistein, reference compound] | 3.0 ± 0.1 | 3.3 ± 0.1 | – | – | – | GI50 (MCF7 cells; [7]): 46 µM; GI50 (MCF12A cells; [8]): 22 µM; GI50 (NCI/ADR-RES cells; [9]): 17 µM
